# Results taken from PubChem BioAssay (NCI).
# “And” between values parts separate entries of the source, which are not always exact repeats. Identical values can stand only once.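 Cultured in 96-well plates, cells were exposed to test compound for 48 hours across five concentrations. GI50 = concentration required for 50% inhibition of growth. TGI: concentration producing complete growth inhibition.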
# What was measured:
# Assay in all cases: NCI tumour cell line growth inhibition, 48 h
# P388 leukemia = system: P388 leukemia
# SK-MEL-28 melanoma = system: SK-MEL-28 melanoma
# DMS 273 small cell lung = system: DMS 273 small cell lung
# T-47D breast = system: T-47D breast
# SF-295 CNS = system: SF-295 CNS
# A498 renal = system: A498 renal
# XF 498 CNS = system: XF 498 CNS
# RXF 393 renal = system: RXF 393 renal
# TK-10 renal = system: TK-10 renal
# SF-268 CNS = system: SF-268 CNS
# M14 melanoma = system: M14 melanoma
# SW-620 colon = system: SW-620 colon
# KM12 colon = system: KM12 colon
# CAKI-1 renal = system: CAKI-1 renal
# EKVX NSCLC = system: EKVX NSCLC
# HOP-92 NSCLC = system: HOP-92 NSCLC
# M19-MEL melanoma = system: M19-MEL melanoma
# SR leukemia = system: SR leukemia
# OVCAR-4 ovarian = system: OVCAR-4 ovarian
# DMS 114 small cell lung = system: DMS 114 small cell lung
# K-562 leukemia = system: K-562 leukemia
# MOLT-4 leukemia = system: MOLT-4 leukemia
# HCC-2998 colon = system: HCC-2998 colon
# MCF7 breast = system: MCF7 breast
# UO-31 renal = system: UO-31 renal
# MDA-N = system: MDA-N
# HCT-15 colon = system: HCT-15 colon
# HOP-18 NSCLC = system: HOP-18 NSCLC
# NCI-H226 lung = system: NCI-H226 lung
# DU-145 prostate = system: DU-145 prostate
# HCT-116 colon = system: HCT-116 colon
# BT-549 breast = system: BT-549 breast
# HT29 colon = system: HT29 colon
# OVCAR-5 ovarian = system: OVCAR-5 ovarian
# OVCAR-3 ovarian = system: OVCAR-3 ovarian
# PC-3 prostate = system: PC-3 prostate
# MDA-MB-435 = system: MDA-MB-435
# SK-MEL-2 melanoma = system: SK-MEL-2 melanoma
# ACHN renal = system: ACHN renal
# NCI-H522 lung = system: NCI-H522 lung
# SNB-75 CNS = system: SNB-75 CNS
# MALME-3M melanoma = system: MALME-3M melanoma
# SN12C renal = system: SN12C renal
# 786-0 renal = system: 786-0 renal
# COLO 205 colon = system: COLO 205 colon
# IGROV1 ovarian = system: IGROV1 ovarian
# HS 578T breast = system: HS 578T breast
# HOP-62 NSCLC = system: HOP-62 NSCLC
# DLD-1 colon = system: DLD-1 colon
# NCI/ADR-RES ovarian = system: NCI/ADR-RES ovarian
# SN12K1 renal = system: SN12K1 renal
# P388/ADR leukemia = system: P388/ADR leukemia
# MDA-MB-231 breast = system: MDA-MB-231 breast
# SK-OV-3 ovarian = system: SK-OV-3 ovarian
compound,measurement,setting,value
C1CN1c1nc(N2CC2)nc(N2CC2)n1,TGI,P388 leukemia,17.3 µM
same,TGI,SK-MEL-28 melanoma,40 µM
same,TGI,DMS 273 small cell lung,20.5 µM
same,GI50,T-47D breast,8.23 µM and 1.24 µM
same,TGI,T-47D breast,76.6 µM and 19.6 µM
same,GI50,SF-295 CNS,1.31 µM
same,TGI,SF-295 CNS,19.7 µM and 24.9 µM
same,TGI,A498 renal,25.2 µM
same,TGI,XF 498 CNS,17.2 µM
same,GI50,RXF 393 renal,3.32 µM
same,TGI,RXF 393 renal,21.6 µM and 13.5 µM
same,GI50,TK-10 renal,4.36 µM
same,TGI,TK-10 renal,79.8 µM and 16.7 µM
same,GI50,SF-268 CNS,1.45 µM
same,TGI,SF-268 CNS,37.5 µM and 14.8 µM
same,GI50,M14 melanoma,3.86 µM
same,TGI,M14 melanoma,23.9 µM and 34.9 µM
same,GI50,SW-620 colon,7.84 µM
same,TGI,SW-620 colon,56.3 µM and > 54.9 µM
same,GI50,KM12 colon,13 µM
same,TGI,KM12 colon,42.3 µM and 35.9 µM
same,GI50,CAKI-1 renal,1.87 µM
same,TGI,CAKI-1 renal,24.8 µM and 27.5 µM
same,GI50,EKVX NSCLC,22.2 µM
same,TGI,EKVX NSCLC,55.5 µM and 47.4 µM
same,GI50,HOP-92 NSCLC,8.04 µM
same,TGI,HOP-92 NSCLC,35.9 µM and 17.7 µM
same,TGI,M19-MEL melanoma,33 µM
same,TGI,SR leukemia,19.6 µM
same,GI50,OVCAR-4 ovarian,13.8 µM
same,TGI,OVCAR-4 ovarian,36.5 µM and 20.3 µM
same,TGI,DMS 114 small cell lung,23.2 µM
same,TGI,K-562 leukemia,77.9 µM
same,TGI,MOLT-4 leukemia,15.3 µM
same,GI50,HCC-2998 colon,10.4 µM
same,TGI,HCC-2998 colon,23.8 µM and 18.3 µM
same,GI50,MCF7 breast,1.39 µM
same,TGI,MCF7 breast,27.1 µM and 28.9 µM
same,GI50,UO-31 renal,1.28 µM
same,TGI,UO-31 renal,23.4 µM and 3.68 µM
same,GI50,MDA-N,15 µM
same,TGI,MDA-N,42 µM and 33.3 µM
same,GI50,HCT-15 colon,10.1 µM
same,TGI,HCT-15 colon,50.2 µM and 24.6 µM
same,TGI,HOP-18 NSCLC,68.9 µM
same,GI50,NCI-H226 lung,10.8 µM
same,TGI,NCI-H226 lung,27.3 µM and 25.7 µM
same,GI50,DU-145 prostate,0.825 µM
same,TGI,HCT-116 colon,33.4 µM and 15.6 µM
same,GI50,BT-549 breast,8.42 µM
same,TGI,BT-549 breast,45.1 µM and 19.1 µM
same,TGI,HT29 colon,64.8 µM and 35.4 µM
same,GI50,OVCAR-5 ovarian,13.7 µM
same,TGI,OVCAR-5 ovarian,42 µM and 31.4 µM
same,TGI,OVCAR-3 ovarian,41.7 µM and 25.8 µM
same,GI50,PC-3 prostate,20.2 µM
same,TGI,PC-3 prostate,69.3 µM and > 71.2 µM
same,GI50,MDA-MB-435,16.5 µM
same,TGI,MDA-MB-435,35.8 µM and 29.9 µM
same,GI50,SK-MEL-2 melanoma,19.8 µM
same,TGI,SK-MEL-2 melanoma,36.4 µM and 31.3 µM
same,TGI,ACHN renal,20.5 µM
same,TGI,NCI-H522 lung,21 µM and 12.2 µM
same,GI50,SNB-75 CNS,8.99 µM
same,TGI,SNB-75 CNS,25.7 µM and 31.5 µM
same,GI50,MALME-3M melanoma,13.6 µM
same,TGI,MALME-3M melanoma,28.2 µM and 22.5 µM
same,GI50,SN12C renal,4.32 µM
same,TGI,SN12C renal,45.3 µM and 41.2 µM
same,GI50,786-0 renal,1.83 µM
same,TGI,786-0 renal,17 µM and 16 µM
same,TGI,COLO 205 colon,32 µM and 41 µM
same,GI50,IGROV1 ovarian,11.1 µM
same,TGI,IGROV1 ovarian,33.4 µM and 21.8 µM
same,GI50,HS 578T breast,23.4 µM
same,TGI,HS 578T breast,87.5 µM and 52.8 µM
same,GI50,HOP-62 NSCLC,5.92 µM
same,TGI,HOP-62 NSCLC,15.7 µM and 30.1 µM
same,TGI,DLD-1 colon,78.8 µM
same,GI50,NCI/ADR-RES ovarian,3.48 µM
same,TGI,NCI/ADR-RES ovarian,38.6 µM and 12.8 µM
same,TGI,SN12K1 renal,26 µM
same,TGI,P388/ADR leukemia,16.7 µM
same,TGI,MDA-MB-231 breast,56.5 µM and 36.4 µM
same,GI50,SK-OV-3 ovarian,13.9 µM
same,TGI,SK-OV-3 ovarian,41.1 µM and 36.6 µM
C[C@@]1(CO)[C@H](O)CC[C@@]2(C)[C@H]1CC[C@H]1C[C@@H]3C[C@@]12CC[C@@]3(O)COC(=O)CN,TGI,P388 leukemia,209 µM
same,GI50,SK-MEL-28 melanoma,83.9 µM and 150 µM
same,TGI,SK-MEL-28 melanoma,> 500 µM and 252 µM
same,GI50,DMS 273 small cell lung,0.25 µM
same,TGI,DMS 273 small cell lung,144 µM
same,GI50,T-47D breast,41.9 µM
same,TGI,T-47D breast,> 79.1 µM and 190 µM
same,GI50,SF-295 CNS,770 nM (2×) and 3.44 µM
same,TGI,SF-295 CNS,24.4 µM and 142 µM
same,GI50,A498 renal,7.15 µM and 50.9 µM and 8.34 µM
same,GI50,XF 498 CNS,> 70.5 µM and 54.2 µM and 16.8 µM
same,TGI,XF 498 CNS,347 µM and 176 µM
same,TGI,RXF 393 renal,53.6 µM and > 500 µM and 163 µM
same,GI50,TK-10 renal,116 µM
same,TGI,TK-10 renal,> 81.1 µM and 193 µM
same,GI50,SF-268 CNS,65.6 µM
same,TGI,SF-268 CNS,> 500 µM and 242 µM
same,GI50,M14 melanoma,3.99 µM
same,TGI,M14 melanoma,> 79.1 µM and 112 µM
same,TGI,SW-620 colon,59.4 µM and > 500 µM and 220 µM
same,GI50,KM12 colon,> 500 µM and 101 µM
same,TGI,KM12 colon,73.7 µM and > 500 µM and 238 µM
same,GI50,CAKI-1 renal,2.36 µM
same,TGI,CAKI-1 renal,78.7 µM
same,GI50,EKVX NSCLC,96.8 µM and 79.3 µM
same,TGI,EKVX NSCLC,64.5 µM and > 500 µM and 171 µM
same,GI50,HOP-92 NSCLC,325 µM
same,TGI,HOP-92 NSCLC,83.4 µM and > 500 µM and 137 µM
same,TGI,M19-MEL melanoma,> 500 µM and 161 µM
same,GI50,SR leukemia,1.66 µM
same,TGI,SR leukemia,46.5 µM and 47.4 µM
same,GI50,OVCAR-4 ovarian,> 500 µM and 111 µM
same,TGI,OVCAR-4 ovarian,> 87.1 µM and > 500 µM and 182 µM
same,TGI,DMS 114 small cell lung,> 500 µM and 170 µM
same,GI50,K-562 leukemia,12.9 µM
same,TGI,K-562 leukemia,68.4 µM and > 5 µM and 231 µM
same,GI50,MOLT-4 leukemia,2.55 µM
same,TGI,MOLT-4 leukemia,53.7 µM and 162 µM
same,GI50,HCC-2998 colon,> 500 µM and 72.6 µM
same,GI50,MCF7 breast,3.17 µM and 21.2 µM and 3.87 µM
same,GI50,UO-31 renal,9.27 µM
same,TGI,UO-31 renal,> 80.6 µM and 201 µM
same,TGI,MDA-N,> 86.9 µM and 180 µM
same,TGI,HCT-15 colon,> 500 µM and 231 µM
same,GI50,HOP-18 NSCLC,> 500 µM and 87.4 µM
same,TGI,HOP-18 NSCLC,> 500 µM
same,TGI,NCI-H226 lung,> 500 µM and 238 µM
same,GI50,DU-145 prostate,2.02 µM
same,TGI,DU-145 prostate,> 59.8 µM and 75.5 µM
same,GI50,HCT-116 colon,2.03 µM and 19.5 µM and 4.63 µM
same,TGI,HCT-116 colon,65.7 µM and > 500 µM and 155 µM
same,GI50,BT-549 breast,62.7 µM
same,TGI,BT-549 breast,> 241 µM
same,GI50,HT29 colon,13.2 µM
same,TGI,HT29 colon,50.9 µM and 183 µM
same,GI50,OVCAR-5 ovarian,31.2 µM and 137 µM and 33.9 µM
same,TGI,OVCAR-5 ovarian,> 93.2 µM and > 500 µM and 188 µM
same,GI50,OVCAR-3 ovarian,> 500 µM and 105 µM
same,TGI,OVCAR-3 ovarian,> 500 µM and 230 µM
same,GI50,PC-3 prostate,3.29 µM
same,TGI,PC-3 prostate,150 µM
same,GI50,MDA-MB-435,34.8 µM
same,TGI,MDA-MB-435,> 77.6 µM and 109 µM
same,GI50,SK-MEL-2 melanoma,> 500 µM
same,TGI,SK-MEL-2 melanoma,> 89.6 µM and > 500 µM and 177 µM
same,GI50,ACHN renal,0.186 µM
same,TGI,ACHN renal,40.7 µM and 16.5 µM
same,GI50,NCI-H522 lung,14.6 µM and 106 µM and 33.1 µM
same,TGI,NCI-H522 lung,> 82.2 µM and > 500 µM and 172 µM
same,TGI,SNB-75 CNS,58.3 µM and > 500 µM and 258 µM
same,TGI,MALME-3M melanoma,> 500 µM and 189 µM
same,TGI,SN12C renal,65.7 µM and > 500 µM and 183 µM
same,GI50,786-0 renal,1.12 µM
same,TGI,786-0 renal,60.8 µM and 108 µM
same,GI50,COLO 205 colon,82.4 µM
same,TGI,COLO 205 colon,39.7 µM and 193 µM
same,TGI,IGROV1 ovarian,> 500 µM and 181 µM
same,GI50,HS 578T breast,110 µM
same,TGI,HS 578T breast,> 97.2 µM and 214 µM
same,GI50,HOP-62 NSCLC,4.69 µM and 23.3 µM
same,TGI,HOP-62 NSCLC,> 78.7 µM and > 500 µM and 147 µM
same,GI50,DLD-1 colon,> 500 µM and 104 µM
same,TGI,DLD-1 colon,> 500 µM
same,TGI,NCI/ADR-RES ovarian,79.9 µM and > 500 µM and 163 µM
same,GI50,SN12K1 renal,7.45 µM and 1.49 µM
same,TGI,SN12K1 renal,> 500 µM
same,TGI,P388/ADR leukemia,126 µM
same,GI50,MDA-MB-231 breast,45.4 µM
same,TGI,MDA-MB-231 breast,> 89.6 µM and 172 µM
same,TGI,SK-OV-3 ovarian,99.8 µM and > 500 µM and 186 µM
